Data on 15 compounds can be found in US6855730B2, “3-methylidenyl-2-indolinone modulators of protein kinase” (Sugen, Inc., priority 1998, dated 2005).

For experiment [1], the target named is Myc-GyrB-FGFR fusion protein (Homo sapiens, UniProt P11362). The experiment can be described thus: Biochemical FGFR assay (ELISA). The settings on record: read-out: bio fgfR1 IC50.
Experiment [2] concerns the target T1, human flk-1 (Homo sapiens, UniProt P35968).
T1 construct: host or cells: Flk-1/NIH cells (NIH fibroblasts)
In words: Biochemical FLK-1 assay (flk-1 autophosphorylation ELISA). The conditions noted are these: read-out: bio FLK1 IC50 (μM) % if inhibition at 100. The method in brief: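 Flk-1 from lysates of NIH fibroblasts over-expressing human flk-1 (50 μg/well) was captured on anti-flk-1 antibody-coated plates, then autophosphorylated with test compounds and ATP (0.3 mM working solution) for 60 min at room temperature before EDTA stop. Phosphotyrosine was detected with biotinylated 4G10, avidin-biotin peroxidase and TMB at 450 nm.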

Myc-GyrB-FGFR fusion protein, sequence (P11362 478-767 limits assumed): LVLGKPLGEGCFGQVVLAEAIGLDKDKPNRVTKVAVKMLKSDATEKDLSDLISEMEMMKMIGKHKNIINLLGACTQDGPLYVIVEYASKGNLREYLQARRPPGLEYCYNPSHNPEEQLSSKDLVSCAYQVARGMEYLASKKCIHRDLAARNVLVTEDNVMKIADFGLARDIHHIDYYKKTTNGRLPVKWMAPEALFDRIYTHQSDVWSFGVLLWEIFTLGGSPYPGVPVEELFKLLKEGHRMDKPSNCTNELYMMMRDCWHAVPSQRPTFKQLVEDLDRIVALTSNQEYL
T1 sequence (P35968 20-1356): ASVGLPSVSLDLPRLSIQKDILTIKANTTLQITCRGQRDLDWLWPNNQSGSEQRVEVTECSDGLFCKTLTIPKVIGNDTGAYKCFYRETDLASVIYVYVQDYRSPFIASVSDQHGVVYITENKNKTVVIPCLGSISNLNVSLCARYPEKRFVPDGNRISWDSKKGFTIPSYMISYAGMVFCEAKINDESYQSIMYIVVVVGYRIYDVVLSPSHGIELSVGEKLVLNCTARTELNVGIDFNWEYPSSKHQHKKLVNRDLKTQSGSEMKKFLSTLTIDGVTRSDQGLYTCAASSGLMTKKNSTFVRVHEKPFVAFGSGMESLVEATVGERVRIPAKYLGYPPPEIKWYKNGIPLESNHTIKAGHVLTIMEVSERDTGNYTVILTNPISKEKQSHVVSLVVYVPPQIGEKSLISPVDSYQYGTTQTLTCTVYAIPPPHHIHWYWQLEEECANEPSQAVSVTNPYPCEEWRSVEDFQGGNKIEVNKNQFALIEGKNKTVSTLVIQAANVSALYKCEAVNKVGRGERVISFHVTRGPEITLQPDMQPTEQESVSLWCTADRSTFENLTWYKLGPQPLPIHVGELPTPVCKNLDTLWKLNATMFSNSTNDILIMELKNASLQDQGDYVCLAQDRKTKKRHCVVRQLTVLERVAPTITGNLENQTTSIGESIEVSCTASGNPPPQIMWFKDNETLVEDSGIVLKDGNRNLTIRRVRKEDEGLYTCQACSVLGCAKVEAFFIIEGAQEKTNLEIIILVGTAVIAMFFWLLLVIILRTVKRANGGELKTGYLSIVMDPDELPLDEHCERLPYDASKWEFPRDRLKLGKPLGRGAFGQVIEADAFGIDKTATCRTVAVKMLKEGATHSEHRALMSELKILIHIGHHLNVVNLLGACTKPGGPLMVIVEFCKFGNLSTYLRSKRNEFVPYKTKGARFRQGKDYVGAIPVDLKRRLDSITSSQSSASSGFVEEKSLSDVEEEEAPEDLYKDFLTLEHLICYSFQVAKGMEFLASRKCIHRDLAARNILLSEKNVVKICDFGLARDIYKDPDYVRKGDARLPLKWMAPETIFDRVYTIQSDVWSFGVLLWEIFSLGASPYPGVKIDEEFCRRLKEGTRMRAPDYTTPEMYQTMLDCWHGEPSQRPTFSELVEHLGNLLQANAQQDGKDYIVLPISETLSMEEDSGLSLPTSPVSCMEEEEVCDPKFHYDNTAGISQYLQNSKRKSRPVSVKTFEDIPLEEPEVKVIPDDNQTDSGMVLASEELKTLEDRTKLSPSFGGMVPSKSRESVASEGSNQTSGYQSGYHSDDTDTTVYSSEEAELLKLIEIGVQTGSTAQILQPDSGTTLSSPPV

Turning to `O=C1Nc2ccc(N=Cc3cc4ccccc4[nH]3)cc2C1=Cc1cc2ccccc2[nH]1` [Example 171, 3-(1H-indol-2-ylmethylene)-5-[(1H-indol-2-ylmethylene)-amino]-1,3-dihydroindol-2-one], the IC50 (in general, the concentration at which inhibition is half-maximal) in experiment [1] was more than 20000 nM; in experiment [2] it was 20.4 µM.

`O=C(O)CCc1c(/C=C2\C(=O)Nc3ccccc32)[nH]c2c1CCCC2` [Example 190, 3-[2-(2-Oxo-1,2-dihydro-indol-3-ylidenemethyl)-4,5,6,7-tetrahydro-1H-indol-3-yl]-propionic acid]: the values for the IC50 in experiment [1] and in experiment [2] were 5850 nM and 0.06 µM, respectively.

In the case of `O=C(O)CCc1c(/C=C2\C(=O)Nc3ccc(Cl)cc32)[nH]c2c1CCCC2` [Example 191, 3-[2-(5-Chloro-2-oxo-1,2-dihydroindol-3-ylidenemethyl)-4,5,6,7-tetrahydro-1H-indol-3-yl]-propionic acid], the IC50 in experiment [1] worked out at 40 nM; in experiment [2], 0.02 µM.

On to `O=C(O)CCc1c(/C=C2\C(=O)Nc3ccc(Br)cc32)[nH]c2c1CCCC2` [Example 192, 3-[2-(5-Bromo-2-oxo-1,2-dihydroindol-3-ylidenemethyl)-4,5,6,7-tetrahydro-1H-indol-3yl]-propionic acid], for which the IC50 in experiment [1] was 1810 nM; in experiment [2], 0.03 µM.

For the compound `Cc1cccc2c1/C(=C/c1[nH]c3c(c1CCC(=O)O)CCCC3)C(=O)N2` [Example 193, 3-[2-(4-Methyl-2-oxo-1,2-dihydroindol-3-ylidenemethyl)-4,5,6,7-tetrahydro-1H-indol-3-yl]-propionic acid], the IC50 in experiment [1] amounted to 20 nM; in experiment [2] it was 0.02 µM.

Regarding `Cc1ccc2c(c1)/C(=C/c1[nH]c3c(c1CCC(=O)O)CCCC3)C(=O)N2` [Example 194, 3-[2-(5-Methyl-2-oxo-1,2-dihydroindol-3-ylidenemethyl)-4,5,6,7-tetrahydro-1H-indol-3-yl]-propionic acid], the IC50 in experiment [1] was 40 nM; in experiment [2], 0.001 µM.

As to `O=C(O)CCc1c(/C=C2\C(=O)Nc3cc(Cl)ccc32)[nH]c2c1CCCC2` [Example 195, 3-[2-(6-Chloro-2-oxo-1,2-dihydroindol-3-ylidenemethyl)-4,5,6,7-tetrahydro-1H-indol-3-yl]-propionic acid], the IC50 in experiment [1] came to 20 nM; in experiment [2], 0.03 µM.

With `COc1ccc2c(c1)NC(=O)/C2=C\c1[nH]c2c(c1CCC(=O)O)CCCC2` [Example 196, 3-[2-(6-Methoxy-2-oxo-1,2-dihydroindol-3-ylidenemethyl)-4,5,6,7-tetrahydro-1H-indol-3-yl]-propionic acid], the IC50 was determined as 50 nM in experiment [1] and 0.89 µM in experiment [2].

`O=C(O)CCc1c(/C=C2\C(=O)Nc3ncccc32)[nH]c2c1CCCC2` [Example 203, 3-[2-(2-Oxo-1,2-dihydropyrrolo[2,3-b]pyridin-3-ylidenemethyl)-4,5,6,7-tetrahydro-1H-indol-3-yl]-propionic acid]: the IC50 in experiment [1] is 2270 nM; in experiment [2], 0.14 µM.

With `COc1cccc(-c2ccc3c(c2)NC(=O)/C3=C\c2[nH]c3c(c2CCC(=O)O)CCCC3)c1` [Example 204, 3-{2-[6-(3-Methoxyphenyl)-2-oxo-1,2-dihydro-indol-3-ylidenemethyl]-4,5,6,7-tetrahydro-1H-indol-3-yl}-propionic acid], the results for the IC50 in experiment [1] and in experiment [2] were 590 nM and 0.36 µM, respectively.

Turning to `COc1ccc(-c2ccc3c(c2)NC(=O)/C3=C\c2[nH]c3c(c2CCC(=O)O)CCCC3)cc1` [Example 205, 3-{2-[6-(4-Methoxyphenyl)-2-oxo-1,2-dihydro-indol-3-ylidenemethyl]-4,5,6,7-tetrahydro-1H-indol-3-yl}-propionic acid], the IC50 in experiment [1] stood at 2020 nM; in experiment [2], 0.52 µM.

On to `O=C(O)CCc1c(/C=C2\C(=O)Nc3cc(-c4ccccc4)ccc32)[nH]c2c1CCCC2` [Example 206, 3-[2-(2-oxo-6-phenyl-1,2-dihydroindol-3-ylidenemethyl)-4,5,6,7-tetrahydro-1H-indol-3-yl]-propionic acid], for which the figures for the half-inhibitory concentration (IC50) in experiment [1] and in experiment [2] were 1180 nM and 6.08 µM, respectively.

As for `O=C(O)CCc1ccccc1/C=C1/C(=O)Nc2ccccc21` [Example 214, 3-[2-(2-Oxo-1,2-dihydroindol-3-ylidenemethyl)-phenyl]-propionic acid], the IC50 in experiment [1] is 30200 nM; in experiment [2], 50.6 µM.

In the case of `COc1cccc(-c2ccc3c(c2)NC(=O)/C3=C\c2[nH]cc(C)c2CCC(=O)O)c1` [Example 223, 3-{2-[6-(3-Methoxyphenyl)-2-oxo-1,2-dihydro-indol-3-ylidenemethyl]-4-methyl-1H-pyrrol-3-yl}-propionic acid], the IC50 in experiment [1] amounted to 1220 nM; in experiment [2], 28.2 µM.

As to `CCOc1cccc(-c2ccc3c(c2)NC(=O)/C3=C\c2[nH]cc(C)c2CCC(=O)O)c1` [Example 224, 3-{2-[6-(3-Ethoxyphenyl)-2-oxo-1,2-dihydro-indol-3-ylidenemethyl]-4-methyl-1H-pyrrol-3-yl}-propionic acid], the IC50 in experiment [1] was 4240 nM; in experiment [2], 1 µM.
